PubChem BioAssay (NCI)
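Test compounds were applied to cells in 96-well plates for 48 hours at 5 doses. Abbreviation: GI50, concentration required for 50% inhibition of growth. TGI: concentration producing complete growth inhibition.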

Tests used:
Test in all cases: NCI tumour cell line growth inhibition, 48 h
COLO 205 colon = system: COLO 205 colon
HCC-2998 colon = system: HCC-2998 colon
HCT-116 colon = system: HCT-116 colon
OVCAR-5 ovarian = system: OVCAR-5 ovarian
RPMI-8226 leukemia = system: RPMI-8226 leukemia
UO-31 renal = system: UO-31 renal

Row | Structure (SMILES) | TGI (COLO 205 colon) | TGI (HCC-2998 colon) | TGI (HCT-116 colon) | TGI (OVCAR-5 ovarian) | TGI (RPMI-8226 leukemia) | TGI (UO-31 renal) | GI50 (COLO 205 colon) | GI50 (HCC-2998 colon) | GI50 (OVCAR-5 ovarian) | GI50 (RPMI-8226 leukemia) | GI50 (UO-31 renal)
1 | CC(C)=CCC/C(C)=C/CC/C(C)=C/C1CCC(=O)C1(C)C (stereo not given) | 30.8 µM | 38.2 µM | 30.7 µM | 39.7 µM | 42.4 µM | 31.7 µM |  |  |  |  | 
2 | OCCCCCNc1ccnc2cc(Cl)ccc12 | > 100 µM | > 100 µM | > 100 µM | > 100 µM | > 100 µM | > 100 µM |  |  |  |  | 
3 | COc1ccc2c(c1OC)C(C=C(c1ccccc1)c1ccccc1)CN(C)C2 (stereo not given) | 28.5 µM | 67.1 µM | 20.7 µM | 61.6 µM | 50.8 µM | > 100 µM |  |  |  |  | 
4 | COc1c(Cl)[c]([Hg][O]C(C)=O)c(NCC(C)=O)c(OC)[c]1[Hg][O]C(C)=O | 54.5 µM | 39.1 µM |  | 90.9 µM | 38.8 µM | 40 µM | 22 µM | 16.9 µM | 38.7 µM | 15 µM | 22 µM
5 | CC(C)(C)C1CCC(=O)C(C(O)CC2CC(=O)N(c3ccccc3)C(=O)C2)C1 (stereo not given) | > 100 µM | > 100 µM | > 100 µM | > 100 µM | > 100 µM | > 100 µM |  |  |  |  | 
6 | CC(C)C1NC(=O)[C@H](C)OC(=O)[C@@H](C(C)C)NC(=O)[C@@H](C)OC(=O)C(C(C)C)NC(=O)[C@H](C)OC1=O (stereo not given in full) | > 94.8 µM | > 100 µM | > 100 µM | > 100 µM | > 68.8 µM | > 100 µM |  |  |  |  | 
7 | CC(=O)OC1(C#N)CC2OC1C1N=NN(C(=O)OC(C)(C)C)C21 (stereo not given) | > 100 µM | > 100 µM | 15.5 µM | > 100 µM | > 100 µM | > 100 µM |  |  |  |  | 
8 | [N-]=[N+]=NC1C2CC3CC(C2)CC1C3 (stereo not given) | > 100 µM | > 100 µM | > 100 µM | > 100 µM | > 100 µM | > 100 µM |  |  |  |  | 
9 | CCC(C)(C)NS(=O)(=O)c1ccccc1 |  | > 100 µM | > 100 µM | > 100 µM | > 100 µM | > 100 µM |  |  |  |  | 
10 | CC1(C)Oc2ccccc2[N+]([O-])=C1c1ccccc1 | > 100 µM | > 100 µM | > 100 µM |  | > 100 µM | > 100 µM |  |  |  |  | 
11 | Cc1nc(-n2nc(-c3ccccc3)cc2-c2ccccc2)sc1C(=O)/C=C/c1ccc(Cl)cc1 | 30.1 µM | 29.9 µM |  | > 100 µM | 26.7 µM | 21.1 µM |  |  |  |  | 
12 | C/C(=N\NS(=O)(=O)c1c(C)cc(C)cc1C)c1ccc[n+]([O-])n1 |  | > 100 µM | 25.7 µM | 56.1 µM | 31.4 µM | 52.8 µM |  |  |  |  | 
13 | COC(=O)C1=C(O)c2cc3c(cc2[C@H](c2cc(OC)c(OC)c(OC)c2)C1)OCO3 | 34.7 µM |  | > 100 µM | > 100 µM | > 100 µM | 36.3 µM |  |  |  |  | 
14 | COC(=O)c1ccc(/C=C/S(=O)(=O)c2ccccc2)cc1 | > 100 µM |  | > 100 µM | > 100 µM | > 100 µM | > 100 µM |  |  |  |  | 
15 | CCOc1ccc(N=Cc2ccc3ccccc3n2)cc1 | > 100 µM | > 100 µM | > 100 µM | > 100 µM | > 100 µM | > 100 µM |  |  |  |  | 
16 | Cc1ccc(-c2cc(=O)c3cc(C)c(C)c(C(=O)O)c3o2)cc1[N+](=O)[O-] | > 100 µM |  | > 100 µM | > 100 µM | > 100 µM | > 100 µM |  |  |  |  | 
17 | CCN(CC)/[N+]([O-])=N/OCC(C)O (stereo not given) |  | > 100 µM | > 100 µM | > 100 µM |  | > 100 µM |  |  |  |  | 
18 | N/C(=N\N=C\c1ccc(O)c(O)c1)NO | > 100 µM | > 100 µM | > 100 µM | > 100 µM | > 100 µM | > 100 µM |  |  |  |  | 
19 | CC(CCC(=O)O)c1ccc(Br)cc1 (stereo not given) | > 100 µM | > 100 µM | > 100 µM | > 100 µM | > 100 µM | > 100 µM |  |  |  |  | 
20 | O=C(CC1SC(=Nc2ccccc2Cl)NC1=O)Nc1ccc(Cl)cc1 (stereo not given) | 48.7 µM | > 100 µM | > 100 µM | > 100 µM |  | > 100 µM |  |  |  |  | 
21 | C/C=C(\C)C(=O)N1c2ccccc2CC1c1c(C)[nH]c2ccccc12 (stereo not given) | 74.5 µM | > 100 µM | > 100 µM | > 100 µM | > 100 µM | > 100 µM |  |  |  |  | 
22 | Fc1ccc2c(c1)cc1ccc3cccc4ccc2c1c34 | > 100 µM | > 100 µM | > 100 µM | > 100 µM |  | > 100 µM |  |  |  |  | 
23 | CCOC(=O)NC(=O)c1cn(C2OC(COC(=O)CCCCCCCCC(=O)OCC3OC(n4cc(C(=O)NC(=O)OCC)c(=O)[nH]c4=O)C4OC(C)(C)OC34)C3OC(C)(C)OC32)c(=O)[nH]c1=O (stereo not given) |  | > 100 µM | > 100 µM | > 100 µM | > 100 µM | > 100 µM |  |  |  |  | 
24 | Cn1cc2ccccc2c1-c1nc(F)nc(Nc2ccc(N)cc2)n1 |  | 32.1 µM | 35.1 µM | 61.9 µM | 76.5 µM | 53.8 µM |  |  |  |  | 
25 | CC(=O)Oc1cc(Cl)c(OC(C)=O)c2c(OC(C)=O)c(C)c(O[Si](C)(C)C(C)(C)C)cc12 | 32.5 µM | 15.5 µM | 13.6 µM |  | 9.41 µM | 26.3 µM |  |  |  |  | 
